One block for each compound: values may come before it.
Legend:
freely moving rats = experiment: Sleep study of (R)-amisulpride, EEG/EMG (Example 3A); type: in vivo, rat; settings: 10, 30, 100 mg/kg, p.o.
Description: Rapid eye movement (REM) sleep time, non-rapid eye movement (NREM) sleep time, WAKE time were measured using electroencephalogram (EEG) and electromyogram (EMG) recordings. […] EEG and EMG recordings were made for 6 hr starting at the beginning of the light phase. Vehicle (0.05 N HCl/0.5% Methyl Cellulose 400 solution) or dosing suspensions were orally administered 10 min before the beginning of light phase. The volume of administration was 5 mL/kg. The order of drug treatment varied pseudo-randomly and at least 1 week was allowed between the experiments for individual animals.
A radio transmitter (TL11M2-F40-EET; Data Science International, New Brighton, Minn., USA) was implanted subcutaneously in the back of anesthetized animals, and a pair of electrode wires was stereotaxically implanted into the skull in the following locations: one in the frontoparietal (2 mm anterior to the bregma and 2 mm left to the midline), and the other in parietal (5 mm posterior to the bregma and 2 mm right to the midline) areas. The EEG electrodes were fixed using dental cement. Electromyograms (EMG) were recorded from the dorsal neck muscle. […] EEG/EMG were recorded in the home cages in a soundproof box using Dataquest A.R.T. software (Data Science International, New Brighton, Minn., USA) at a sampling rate of 500 Hz. […]

healthy volunteers [1] = experiment: REM suppression polysomnography (PSG) study of (R)-amisulpride (Example 5); type: in vivo, human
Description: REM suppression was the biomarker used to determine clinically-significant levels of 5-HT7 antagonism and its pharmacodynamics. REM suppression was assessed by total time in minutes spent in REM sleep and by the latency in minutes to REM sleep. […] REM suppression in human volunteers is an established translational biomarker useful to identify doses for antidepressant effects in patients.
The primary endpoint was REM sleep suppression as determined at post dose time points in the measures of latency to REM sleep, REM sleep time in minutes, and percent decrease in REM sleep time relative to total sleep time.
The REM suppression time value is the Least Square Mean differences from placebo, and the error bars represent the 90% confidence interval (CI).
The results presented in Tables 21-23 were determined from an analysis of the date based on a linear mixed model with terms for treatment, period, and treatment sequence as fixed effects, respective baseline PSG value as a continuous covariate, and treatment-by-baseline PSG interaction, and subject nested within sequence as a random effect, the Kenward and Roger correction for the degrees of freedom and an unstructured covariance structure to model the intrasubject correlation. The abbreviations used in Tables 21-23 are as follows: PSG=polysomnography; CI=confidence interval; LS=least-squares; REM=rapid eye movement; SE=standard error.

clinical = settings: human, in vivo
healthy volunteers [2] = experiment: concentration-QTc analysis, linear mixed-effects model (Example 7A); type: in vivo, human
Description: The effect of amisulpride (enantiomers and total) on change-from-baseline QTcF and heart rate (ΔQTcF and ΔHR) was evaluated based on a linear mixed-effects model at each nominal post-dosing time point (“by-time point analysis”) using the intersection union test. In the concentration-QTc analysis (primary analysis), the full model included ΔQTcF as the dependent variable, time-matched plasma concentrations of R- and S- and total amisulpride enantiomers as the explanatory variates, centered baseline QTcF (i.e., baseline QTcF for individual subject subtracting the population mean baseline QTcF for all subjects) as an additional covariate, a fixed intercept, and random effect for both intercept and slopes per subject, when applicable. A pre-specified model selection procedure was then performed to choose a primary model from among the full model and reduced models from possible first order combinations (without quadratic and interaction terms) among these 3 analytes of concentrations of R- and S-enantiomers and total amisulpride (including models with only 1 analyte and with any 2 analytes).
The observations and a linear mixed-effects model parameters derived therefrom was used to estimate the ΔQTcF at the observed Cmax of the formulation Lots studied.

[3] = human, in vivo, po
[4] = Coukell et al 1996; cited from earlier work
[5] = linear mixed-effects model, total amisulpride concentration vs ΔQTcF

Structure (SMILES): CCN1CCC[C@@H]1CNC(=O)c1cc(S(=O)(=O)CC)c(N)cc1OC [(R)-amisulpride, R-4-Amino-N-[(1-ethyl-2-pyrrolidinyl)methyl]-5-(ethylsulfonyl)-2-methoxybenzamide]
NREM sleep time and WAKE time (freely moving rats): no observed effect
REM sleep duration (freely moving rats; light phase): reduced REM sleep duration in dose-dependent manner
tolerability (healthy volunteers [1]; healthy subjects): well tolerated
vital signs and ECGs (healthy volunteers [1]; in vivo): normal

concentration at 0.5 hr (clinical): 346 ng/mL
concentration at 1 hr (clinical): 294 ng/mL
concentration at 2 hr (clinical): 432 ng/mL
concentration at 3 hr (clinical): 516 ng/mL
concentration at 4 hr (clinical): 272 ng/mL
concentration at 6 hr (clinical): 163 ng/mL
concentration at 8 hr (clinical): 96.8 ng/mL
concentration at 10 hr (clinical): 69.9 ng/mL
concentration at 12 hr (clinical): 55.6 ng/mL
concentration at 24 hr (clinical): 21.2 ng/mL
concentration at 36 hr (clinical): 9.84 ng/mL
concentration at 48 hr (clinical): 7.02 ng/mL
concentration at 72 hr (clinical): 1.48 ng/mL
washout observed for blood plasma concentration [3]: approximately 24 hour
Structure (SMILES): CCN1CCCC1CNC(=O)c1cc(S(=O)(=O)CC)c(N)cc1OC (stereo not drawn) [amisulpride, 4-amino-N-[(1-ethylpyrrolidin-2-yl)methyl]-5-ethylsulfonyl-2-methoxy-benzamide]
estimated population slope of the concentration-QTc relationship (healthy volunteers [2]; 90% CI: 0.0257 to 0.0369): 0.031 ms per ng/mL
intercept of the concentration-QTc relationship (healthy volunteers [2]; 90% CI: −4.88 to 0.27): -2.3 ms
Centered Baseline Effect of concentration-QTc relationship model (healthy volunteers [2]; [5]): -0.23 ms
Intercept of concentration-QTc relationship model (healthy volunteers [2]; [5]): -2.31 ms
Total Amisulpride Slope of concentration-QTc relationship model (healthy volunteers [2]; [5]): 0.031 ms per ng/mL
terminal plasma half-life [4]: approximately 12 hours

Reference: patent US11160758B2, “Modified release formulations and uses thereof” (Sunovion Pharmaceuticals Inc., priority 2019, dated 2021)
